Measurements taken from patent publication US20230123334A1, “AMINO LIPID COMPOUND, PREPARATION METHOD THEREFOR, AND APPLICATION THEREOF” (SHENZHEN SHENXIN BIOTECHNOLOGY CO., LTD., priority 2020, published 2023).

What follows are compounds tested on HEK293 cells (assay: Preliminary screening as DNA vectors, GFP transfection of HEK293 cells). Conditions: amino lipid/DOPE liposome with 75 ng plasmid DNA (psin-EGFP-IRES-Puro); number of GFP-expressing cells divided by total nuclei (Hoechst).
Format: cell-based
Method in brief: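 HEK293 cells in DMEM/10% FBS transfected with 75 ng EGFP plasmid per well complexed with amino lipid/DOPE liposomes in pH 5.6 sodium acetate. Hoechst nuclear stain added 20-24 h post-transfection, then cells cultured another 20-24 h. Confocal imaging gives GFP-positive cells as % of total nuclei.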

| SMILES | Absolute DNA transfection efficiency in HEK293 cells [%] |
| --- | --- |
| CCCCCCCCCCCCCCCCCCNc1nc(NCCN(C)C)nc(SCCCCCCCCCCC)n1 [S11N18 D1] | 13.8 |
| CCCCCCCCCCCCCCCCSc1nc(NCCCCCCCCC)nc(NCCCN2CCN(C)CC2)n1 [S16N9 D9] | 9.5 |
| CCCCCCCCCCCNc1nc(NCCN(C)C)nc(SCCCCCCCCCCC)n1 [S11N11 D1] | 17.8 |
| CCCCCCCCCCCCCCCCCCSc1nc(NCCCCCC)nc(NCC2CCN(C)CC2)n1 [S18N6 D10] | 8.9 |
| CCCCCCCCCCCCCCCCCCSc1nc(NCCCCCCCCCCCCC)nc(NCCCN2CCOCC2)n1 [S18N13 D8] | 0.0 |
| CCCCCCCCCCCCCCSc1nc(NCC2CCN(C)CC2)nc(SCCCCCC)n1 [S6S14 D10] | 53.3 |
| CCCCCCCCCCCCCCCCSc1nc(NCCCCCCCCCCC)nc(NCCN2CCCC2)n1 [S16N11 D3] | 16.6 |
| CCCCCCCCCCCCNc1nc(NCCCN2CCN(C)CC2)nc(SCCCCCCCCC)n1 [S9N12 D9] | 28.8 |
| CCCCCCCCCCCSc1nc(NCCN2CCOCC2)nc(SCCCCCCCC)n1 [S8S11 D2] | 17.9 |
| CCCCCCCCCCSc1nc(NCCCCCCC)nc(NCCCN2CCOCC2)n1 [S10N7 D8] | 2.6 |
| CCCCCCCCCCCCCCCCCCSc1nc(NCCCCCC)nc(NCCCN(C)C)n1 [S18N6 D6] | 14.5 |
| CCCCCCCCCCCCSc1nc(NCCCCCCCC)nc(NCCN2CCCCC2)n1 [S12N8 D4] | 0.0 |
| CCCCCCCCCCSc1nc(NCCN(C)C)nc(SCCCCCCC)n1 [S7S10 D1] | 21.8 |
| CCCCCCCCCCCSc1nc(NCCCCCCCCC)nc(NCCCN2CCOCC2)n1 [S11N9 D8] | 8.6 |
| CCCCCCCCCCCCCCCCCCSc1nc(NCCCCCCCCCCCCCCC)nc(NCCN2CCCC2)n1 [S18N15 D3] | 0.2 |
| CCCCCCCCCCCSc1nc(NCCCCCCC)nc(NCCN2CCCC2)n1 [S11N7 D3] | 19.4 |
| CCCCCCCCCCCCCCCCNc1nc(NCCN2CCOCC2)nc(SCCCCCC)n1 [S6N16 D2] | 1.4 |
| CCCCCCCCCCCCCCCNc1nc(NCCN2CCOCC2)nc(SCCCCCCCC)n1 [S8N15 D2] | 4.9 |
| CCCCCCCCCCSc1nc(NCCCCCCCC)nc(NCC2CCN(C)CC2)n1 [S10N8 D10] | 0.6 |
| CCCCCCCCCCCCCCCNc1nc(NCCN(CC)CC)nc(SCCCCCCCCCCCC)n1 [S12N15 D7] | 3.6 |
| CCCCCCCCCCCNc1nc(NCCCN(C)C)nc(SCCCCCCCCCC)n1 [S10N11 D6] | 26.5 |
| CCCCCCCCCCCCNc1nc(NCC2CCN(C)CC2)nc(SCCCCCCCC)n1 [S8N12 D10] | 44.5 |
| CCCCCCCCCCCCCCCCSc1nc(NCCCCCC)nc(NCCN(CC)CC)n1 [S16N6 D7] | 5.8 |
| CCCCCCCCCCCCCCCCNc1nc(NCCN2CCN(C)CC2)nc(SCCCCCCCCCCCC)n1 [S12N16 D5] | 0.7 |

| SMILES | Absolute DNA transfection efficiency in HEK293 cells [%] |
| --- | --- |
| CCCCCCCCCCSc1nc(NCCCCCCCCC)nc(NCCCN(C)C)n1 [S10N9 D6] | 21.0 |
| CCCCCCCCCCCCCCCCCCSc1nc(NCCN2CCOCC2)nc(N(CCCCCCCCCCCC)CCCCCCCCCCCC)n1 [S18^2N12 D2] | 0.0 |
| CCCCCCCCCCCCCCSc1nc(NCCCCCCCCCCCC)nc(NCCCN(C)C)n1 [S14N12 D6] | 6.3 |
| CCCCCCCCCCCCCNc1nc(NCCN2CCN(C)CC2)nc(SCCCCCCCCCCCC)n1 [S12N13 D5] | 1.5 |
| CCCCCCCCCCCNc1nc(NCCCN2CCN(C)CC2)nc(SCCCCCCCCC)n1 [S9N11 D9] | 49.3 |
| CCCCCCCCCCCSc1nc(NCCN2CCCCC2)nc(SCCCCCCC)n1 [S7S11 D4] | 14.2 |
| CCCCCCCCCCCCCCSc1nc(NCCN2CCCC2)nc(N(CCCCCCCCCCCC)CCCCCCCCCCCC)n1 [S14^2N12 D3] | 0.2 |
| CCCCCCCCCCSc1nc(NCCN2CCCCC2)nc(SCCCCCCCC)n1 [S8S10 D4] | 8.3 |
| CCCCCCCCCCCCN(CCCCCCCCCCCC)c1nc(NCCN(C)C)nc(SCCCCCCCCC)n1 [S9^2N12 D1] | 0.3 |
| CCCCCCCCCCCCCCCCNc1nc(NCCCN(C)C)nc(SCCCCCCCCCC)n1 [S10N16 D6] | 13.6 |
| CCCCCCCCCCCCSc1nc(NCCN2CCOCC2)nc(N(CCCCCCCCCCCC)CCCCCCCCCCCC)n1 [S12^2N12 D2] | 0.0 |
| CCCCCCCCCCCCCNc1nc(NCC2CCN(C)CC2)nc(SCCCCCCCC)n1 [S8N13 D10] | 18.7 |
| CCCCCCCCCCCCCCCNc1nc(NCCN2CCCCC2)nc(SCCCCCCCCC)n1 [S9N15 D4] | 4.2 |
| CCCCCCCCCCCCSc1nc(NCCCN(C)C)nc(SCCCCCC)n1 [S6S12 D6] | 13.6 |
| CCCCCCCCCCCCCCCSc1nc(NCCCCCCCCCCC)nc(NCCCN(C)C)n1 [S15N11 D6] | 12.9 |
| CCCCCCCCCCCCCCCCCCNc1nc(NCCCN2CCN(C)CC2)nc(SCCCCCCCCCCCCCC)n1 [S14N18 D9] | 0.3 |
| CCCCCCCCCCCCCCCCSc1nc(NCCN2CCCC2)nc(SCCCCCC)n1 [S6S16 D3] | 9.8 |
| CCCCCCCCCCCCCCCSc1nc(NCCCCCCCCC)nc(NCCCN2CCN(C)CC2)n1 [S15N9 D9] | 13.4 |
| CCCCCCSc1nc(NCCN2CCCCC2)nc(SCCCCCC)n1 [S6S6 D4] | 1.4 |
| CCCCCCCCCCCCCCCCNc1nc(NCCN2CCN(C)CC2)nc(SCCCCCCCCCCCCCC)n1 [S14N16 D5] | 0.9 |
| CCCCCCCCCCCCCCCCCCSc1nc(NCCCCCCCCCCCCCCCC)nc(NCCN2CCOCC2)n1 [S18N16 D2] | 0.0 |
| CCCCCCCCCSc1nc(NCCCCCCCC)nc(NCCN2CCCCC2)n1 [S9N8 D4] | 27.3 |
| CCCCCCCCCCSc1nc(NCCCCCCCC)nc(NCCN(C)C)n1 [S10N8 D1] | 7.1 |
| CCCCCCCCCCCCCNc1nc(NCCCN2CCOCC2)nc(SCCCCCC)n1 [S6N13 D8] | 4.9 |

| SMILES | Absolute DNA transfection efficiency in HEK293 cells [%] |
| --- | --- |
| CCCCCCCCCCCCCCCCCCSc1nc(NCCN(CC)CC)nc(N(CCCCCCCCCCCC)CCCCCCCCCCCC)n1 [S18^2N12 D7] | 0.0 |
| CCCCCCCCCCCCCNc1nc(NCCN2CCCCC2)nc(SCCCCCC)n1 [S6N13 D4] | 2.1 |
| CCCCCCCCCSc1nc(NCCCCCCCC)nc(NCCCN2CCN(C)CC2)n1 [S9N8 D9] | 25.7 |
| CCCCCCCCCCCCCCCNc1nc(NCCN2CCCCC2)nc(SCCCCCCCC)n1 [S8N15 D4] | 0.9 |
| CCCCCCCCCCCNc1nc(NCCCN2CCOCC2)nc(SCCCCCCCC)n1 [S8N11 D8] | 13.7 |
| CCCCCCCCSc1nc(NCCN2CCCCC2)nc(SCCCCCCCC)n1 [S8S8 D4] | 11.2 |
| CCCCCCCCCSc1nc(NCCCCCC)nc(NCCCN2CCN(C)CC2)n1 [S9N6 D9] | 11.0 |
| CCCCCCCSc1nc(NCCN(C)C)nc(SCCCCCCC)n1 [S7S7 D1] | 7.9 |
| CCCCCCCCCCCCCCSc1nc(NCCCCCCC)nc(NCCN2CCCC2)n1 [S14N7 D3] | 14.4 |
| CCCCCCCCCSc1nc(NCCCCCCC)nc(NCCCN2CCN(C)CC2)n1 [S9N7 D9] | 12.1 |
| CCCCCCCCCCCCSc1nc(NCCCCCCCCCCC)nc(NCC2CCN(C)CC2)n1 [S12N11 D10] | 19.6 |
| CCCCCCCCCCCSc1nc(NCCN2CCCC2)nc(SCCCCCCC)n1 [S7S11 D3] | 9.7 |
| CCCCCCCCCCCNc1nc(NCCCN2CCN(C)CC2)nc(SCCCCCCCCCC)n1 [S10N11 D9] | 10.8 |
| CCCCCCCCCCCCCCCCCCSc1nc(NCCCCCCCCC)nc(NCCCN(C)C)n1 [S18N9 D6] | 19.5 |
| CCCCCCCCCCCCCCCCNc1nc(NCCCN2CCN(C)CC2)nc(SCCCCCCCCCC)n1 [S10N16 D9] | 5.0 |
| CCCCCCCCCCCCCCCNc1nc(NCCN2CCCCC2)nc(SCCCCCCCCCC)n1 [S10N15 D4] | 4.1 |
| CCCCCCCCCCCCCCCCSc1nc(NCCCCCCCCCCC)nc(NCCCN(C)C)n1 [S16N11 D6] | 10.3 |
| CCCCCCCCCCCCNc1nc(NCCN(C)C)nc(SCCCCCCCCCCCC)n1 [S12N12 D1] | 7.9 |
| CCCCCCCCCCCCCCCCNc1nc(NCCCN(C)C)nc(SCCCCCCCC)n1 [S8N16 D6] | 3.7 |
| CCCCCCCCCCCCNc1nc(NCCN2CCCCC2)nc(SCCCCCC)n1 [S6N12 D4] | 2.0 |
| CCCCCCCCCCCSc1nc(NCCCCCCCC)nc(NCCCN2CCN(C)CC2)n1 [S11N8 D9] | 23.6 |
| CCCCCCCCCCCCCCSc1nc(NCCCCCCC)nc(NCCCN2CCOCC2)n1 [S14N7 D8] | 13.3 |
| CCCCCCCCCCCCCNc1nc(NCCN(C)C)nc(SCCCCCCCCCC)n1 [S10N13 D1] | 6.1 |
| CCCCCCCCCCCCCCCCSc1nc(NCCN2CCCCC2)nc(SCCCCCCC)n1 [S7S16 D4] | 10.9 |
